# Assay results as given in PMC10573892, “β-Lactam TRPM8 Antagonists Derived from Phe-Phenylalaninol Conjugates: Structure–Activity Relationships and Antiallodynic Activity” (International Journal of Molecular Sciences, 2023).
# Molecular target: T1, rat TRPM8 channel (rTRPM8) (Rattus norvegicus, UniProt Q8R455)
# T1 construct: expressed in transfected cells
# Experiment: Ca2+ microfluorimetry, menthol-induced Ca2+ entry in HEK293 cells overexpressing rTRPM8
# Assay type: cell-based
# Conditions: for IC50: rTRPM8, HEK293, activation by 100 µM menthol
# Method: The diastereomeric 1,4,4-trisubstitutes β-lactams were evaluated as modulators of the TRPM8 channel by calcium microfluorimetry assays. These assays use a Human Embryonic Kidney 293 (HEK293) cell line that stably overexpressed rat TRPM8 channel (rTRPM8). […] Three separated experiments in triplicate were used.
# The initial biological evaluation of this series of 1,3,4,4-tetrasubstituted β-lactams was performed by calcium microfluorimetry assays using the indicated HEK293 cell line overexpressing rTRPM8 channels.
# Calcium fluorometry, Patch-Clamp assays and in vivo experiments were performed using the methodology previously described for TRPM8 [35] or TRPM3 [61]. In the Patch -Clamp experiments, the intracellular pipette solution contained (in mM) 140 KCl, 5 EGTA, and 10 mM HEPES, adjusted to pH 7.2 with KOH, and the extracellular solution contained (in mM) 140 NaCl, 2 CaCl2, 1 MgCl2, 10 D-glucose and 10 HEPES, adjusted to pH 7.4 with NaOH. Selectivity against TRPV1, TRPV3, TRPA1 and ASIC3 was subcontracted to Eurofins-CEREP or Eurofins-PANLABS (see ref. [35] for more details).
# T1 sequence (Q8R455 whole entry): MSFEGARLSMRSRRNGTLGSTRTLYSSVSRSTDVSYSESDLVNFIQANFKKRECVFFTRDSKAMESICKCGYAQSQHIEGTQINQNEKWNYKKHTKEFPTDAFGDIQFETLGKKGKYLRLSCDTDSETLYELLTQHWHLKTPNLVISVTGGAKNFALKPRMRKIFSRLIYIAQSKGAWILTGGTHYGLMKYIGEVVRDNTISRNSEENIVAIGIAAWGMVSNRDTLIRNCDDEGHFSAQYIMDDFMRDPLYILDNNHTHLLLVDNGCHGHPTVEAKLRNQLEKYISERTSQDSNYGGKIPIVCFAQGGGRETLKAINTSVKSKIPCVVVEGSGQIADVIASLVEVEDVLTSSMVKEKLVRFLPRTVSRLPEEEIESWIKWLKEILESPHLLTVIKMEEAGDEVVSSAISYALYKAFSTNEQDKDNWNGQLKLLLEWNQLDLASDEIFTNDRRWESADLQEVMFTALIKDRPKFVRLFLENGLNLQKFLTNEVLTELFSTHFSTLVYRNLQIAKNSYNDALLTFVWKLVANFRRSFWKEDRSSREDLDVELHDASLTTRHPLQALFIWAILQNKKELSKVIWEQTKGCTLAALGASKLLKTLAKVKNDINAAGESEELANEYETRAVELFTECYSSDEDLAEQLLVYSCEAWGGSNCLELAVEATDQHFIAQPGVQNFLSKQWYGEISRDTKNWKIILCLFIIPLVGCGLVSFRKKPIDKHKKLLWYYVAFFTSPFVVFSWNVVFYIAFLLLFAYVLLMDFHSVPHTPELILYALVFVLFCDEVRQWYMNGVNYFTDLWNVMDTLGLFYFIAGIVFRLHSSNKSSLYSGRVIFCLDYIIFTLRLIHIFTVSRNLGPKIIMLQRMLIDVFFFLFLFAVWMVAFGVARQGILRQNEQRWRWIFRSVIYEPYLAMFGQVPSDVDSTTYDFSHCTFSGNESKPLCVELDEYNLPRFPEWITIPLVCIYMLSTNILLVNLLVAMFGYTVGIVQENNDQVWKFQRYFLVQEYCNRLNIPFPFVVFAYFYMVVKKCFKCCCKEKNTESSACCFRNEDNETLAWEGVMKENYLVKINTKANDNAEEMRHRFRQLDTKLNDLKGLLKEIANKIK
IC50 (Table 1),IC50 (Table 3),SMILES,also measured
0.15 µM,–,"COC(=O)C1(Cc2ccccc2)CC(=O)N1C[C@H](Cc1ccccc1)N(Cc1ccccc1)Cc1ccccc1 (stereo partly drawn) [2a,b]",–
0.71 ± 1.2 µM,–,"CC(C)CNC(=O)C1(Cc2ccccc2)CC(=O)N1C[C@H](Cc1ccccc1)N(Cc1ccccc1)Cc1ccccc1 (stereo partly drawn) [4a,b]",–
0.71 ± 1.27 µM,–,"O=C1CC(Cc2ccccc2)(C(=O)NCc2ccccc2)N1C[C@H](Cc1ccccc1)N(Cc1ccccc1)Cc1ccccc1 (stereo partly drawn) [5a,b]",–
–,–,"O=C1CC(Cc2ccccc2)(C(=O)NCc2ccc(Cl)c(Cl)c2)N1C[C@H](Cc1ccccc1)N(Cc1ccccc1)Cc1ccccc1 (stereo partly drawn) [6a,b]","antagonist activity (relative to benzylamide 5a,b): notable reduction in antagonist activity"
11.6 ± 1.3 µM,–,"O=C1CC(Cc2ccccc2)(C(=O)Nc2cccnc2)N1C[C@H](Cc1ccccc1)N(Cc1ccccc1)Cc1ccccc1 (stereo partly drawn) [7a,b]",–
1.99 ± 1.26 µM,–,"O=C1CC(Cc2ccccc2)(C(=O)NCc2ccccn2)N1C[C@H](Cc1ccccc1)N(Cc1ccccc1)Cc1ccccc1 (stereo partly drawn) [8a,b]",–
10.7 ± 1.38 µM,–,"O=C1CC(Cc2ccccc2)(C(=O)NCc2cccnc2)N1C[C@H](Cc1ccccc1)N(Cc1ccccc1)Cc1ccccc1 (stereo partly drawn) [9a,b]",–
–,–,"O=C1C[C@@]2(Cc3ccccc3)C(=O)N[C@@H](Cc3ccccc3)CN12 [Compound 11a, (3S,6S)-3,6-dibenzyl-1,4-diazabicyclo[4.2.0]octane-5,8-dione]","inhibition at 50 µM (HEK293, at 50 μM): < 50%"
–,2.19 ± 1.36 µM,"CC(C)CNC(=O)[C@]1(Cc2ccccc2)[C@H](C)C(=O)N1C[C@H](Cc1ccccc1)NCc1cccc(-c2ccccc2)c1 [Compound 42, 4S-Benzyl-4-[N-(iso-butyl)-carbamoyl]-3S-methyl-1-[(2′S-(3′′-phenylbencil)amino-3′-phenyl)prop-1′-yl]-2-oxoazetidine]",–
–,4.03 ± 1.35 µM,"CC(C)CNC(=O)[C@]1(Cc2ccccc2)[C@H](C)C(=O)N1C[C@H](Cc1ccccc1)NCc1cccc(F)c1 [Compound 43, 4S-Benzyl-4-[N-(iso-butyl)carbamoyl]-3S-methyl-1-[(2′S-(3′′-fluorobenzyl)amino-3′-phenyl)prop-1′-yl]-2-oxoazetidine]",–
–,3.27 ± 1.31 µM,"CC(C)CNC(=O)[C@]1(Cc2ccccc2)[C@H](C)C(=O)N1C[C@H](Cc1ccccc1)NCc1cccc(Br)c1 [Compound 44, 4S-Benzyl-4-[N-(iso-butyl)carbamoyl]-3S-methyl-1-[(2′S-(3′′-bromobenzyl)amino-3′-phenyl)prop-1′-yl]-2-oxoazetidine]",–
–,3.56 ± 1.4 µM,"CC(C)CNC(=O)[C@]1(Cc2ccccc2)[C@H](C)C(=O)N1C[C@H](Cc1ccccc1)NCc1ccc2ccccc2c1 [Compound 45, 4S-Benzyl-4-[N-(iso-butyl)-carbamoyl]-3S-methyl-1-[(2′S-(2′′-naphtylmethyl)amino-3′-phenyl)prop-1′-yl]-2-oxoazetidine]",–

SMILES,IC50 (Table 1),IC50 (Table 3),also measured
"C[C@@H]1C(=O)N(C[C@H](Cc2ccccc2)NCc2ccccc2)[C@]1(Cc1ccccc1)C(=O)OC(C)(C)C [Compound 37, 4S-Benzyl-4-(terc-butoxy)carbonyl-3S-methyl-1-[(2’S-N-benzylamino-3’-phenyl)prop-1′-yl]-2-oxoazetidine]",–,3.06 ± 1.25 µM,–
"C[C@@H]1C(=O)N(C[C@H](Cc2ccccc2)NCc2cccc(-c3ccccc3)c2)[C@]1(Cc1ccccc1)C(=O)OC(C)(C)C [Compound 40, 4S-Benzyl-4-(terc-butoxy)carbonyl-3S-methyl-1-[(2’S-N-(3′′-biphenyl)methylamino-3’-phenyl)prop-1′-yl]-2-oxoazetidine]",–,6.36 ± 1.41 µM,–
"C[C@@H]1C(=O)N(C[C@H](Cc2ccccc2)NCc2ccc(-c3ccccc3)cc2)[C@]1(Cc1ccccc1)C(=O)OC(C)(C)C [Compound 41, 4S-Benzyl-4-terc-butoxycarbonyl-3S-methyl-1-[(2’S-N-(4′′-biphenyl)methylamino-3’-phenyl)prop-1′-yl]-2-oxoazetidine]",–,9.26 ± 1.41 µM,–
